Key:
athymic nude mice = assay: Acute toxicity study, plasma biochemistry; type: in vivo; conditions: for ALT / AST / Albumin / Alk.Ptase / BUN / Bile Acid / Chol / Globulin / TBIL: plasma
Method: The acute toxicity study of the compound IST5 was carried out in athymic nude mice (8 weeks) (Crl:NU/NCr-Foxn1n) of either sex (n = 8/dose group, 4 of each sex). IST5 compound was administered once (0, 10, 30, and 100 mg/kg) via single intra-peritoneal (i.p.) injection, and the mice in the vehicle (0 mg/kg) group received each a single i.p. injection of 0.3% hydroxypropyl cellulose. Plasma samples were analyzed for liver (AST, […], alkaline phosphatase, total bilirubin, bile acid) and kidney functions (BUN, albumin, globulin and albumin-globulin ratio) (Marshfields Labs, WI, USA).
The following clinical chemistry parameters were measured: Aspartate aminotransferase (AST), alanine aminotransferase (ALT), sorbitol dehydrogenase (SDH), alkaline phosphatase (ALP), γ-glutamyltransferase (GGT), lactate dehydrogenase (LDH), bilirubin (TBIL), protein (TP), glucose (GLU), blood urea nitrogen (BUN), creatinine (CREAT), and electrolytes (Na, K, Cl, Ca, CO2).

JAK1 = JAK1 (Homo sapiens, UniProt P23458); assay: Radiometric filtration binding cell-free kinase assay; type: biochemical; parameters: purchased Reaction Biology (JAK1/2/3, TYK2); Luceome Biotechnologies KinaseSeeker (others); conditions: percent activity of kinase after exposure to IST5 1 µM
Sequence of JAK1 (P23458 whole entry, the tested form may be a part): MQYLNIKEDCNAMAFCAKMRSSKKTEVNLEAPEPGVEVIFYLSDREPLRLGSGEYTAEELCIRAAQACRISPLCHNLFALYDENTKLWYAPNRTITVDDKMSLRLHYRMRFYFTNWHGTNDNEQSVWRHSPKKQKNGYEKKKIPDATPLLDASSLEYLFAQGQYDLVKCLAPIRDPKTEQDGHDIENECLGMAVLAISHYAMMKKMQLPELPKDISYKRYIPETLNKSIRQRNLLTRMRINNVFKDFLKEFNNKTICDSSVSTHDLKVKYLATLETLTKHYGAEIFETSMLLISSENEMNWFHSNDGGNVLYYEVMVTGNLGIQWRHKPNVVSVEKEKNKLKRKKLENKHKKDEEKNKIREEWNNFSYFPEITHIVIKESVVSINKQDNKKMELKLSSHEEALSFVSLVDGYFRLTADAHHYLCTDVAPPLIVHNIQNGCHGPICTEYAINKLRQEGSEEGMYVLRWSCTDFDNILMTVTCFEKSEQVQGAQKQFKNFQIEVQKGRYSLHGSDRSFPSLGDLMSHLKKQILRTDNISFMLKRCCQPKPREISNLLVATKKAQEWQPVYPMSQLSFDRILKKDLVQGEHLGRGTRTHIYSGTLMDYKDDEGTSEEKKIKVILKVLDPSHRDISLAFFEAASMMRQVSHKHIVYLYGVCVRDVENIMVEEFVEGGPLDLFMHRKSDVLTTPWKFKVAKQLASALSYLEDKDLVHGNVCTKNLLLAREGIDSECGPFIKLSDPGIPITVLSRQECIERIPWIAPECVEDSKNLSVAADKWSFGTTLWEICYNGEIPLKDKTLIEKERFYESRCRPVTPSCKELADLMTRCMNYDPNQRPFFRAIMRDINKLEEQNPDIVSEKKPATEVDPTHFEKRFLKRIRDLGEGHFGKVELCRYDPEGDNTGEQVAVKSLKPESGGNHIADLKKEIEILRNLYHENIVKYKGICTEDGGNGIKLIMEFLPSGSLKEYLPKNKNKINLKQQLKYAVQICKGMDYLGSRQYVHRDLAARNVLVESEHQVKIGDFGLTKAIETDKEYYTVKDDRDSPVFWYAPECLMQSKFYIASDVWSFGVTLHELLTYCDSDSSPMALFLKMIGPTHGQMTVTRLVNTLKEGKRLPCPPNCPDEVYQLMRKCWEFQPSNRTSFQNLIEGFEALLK
Method: (§1) For Jak1, Jak2, Jak3 and Tyk2, a radiometric filtration binding assay was conducted by Reaction Biologicals (Malvern, PA, USA) (Table 1). This radiometric assay is a cell-free assay which is based on conventional filter-binding assays, directly measuring kinase catalytic activity toward a specific substrate. For evaluation of the activity of the other kinases, the Kinase Seeker Technology was utilized (Luceome Biotechnologies, Tucson, AZ, USA), which is a luminescence-based cell-free assay. In this assay, the reassembly of luciferase fragments is mediated by the interaction of a kinase with an active site-dependent probe. The competitive displacement of the probe by an inhibitor is measured by a change in luminescence signal. Percent activity of each kinase after exposure to IST5 (1 µM) is presented.

JAK2 = JAK2 (Homo sapiens, UniProt O60674); assay: as above; type: biochemical; parameters: purchased Reaction Biology (JAK1/2/3, TYK2); Luceome Biotechnologies KinaseSeeker (others); conditions: percent activity of kinase after exposure to IST5 1 µM
Sequence of JAK2 (O60674 whole entry): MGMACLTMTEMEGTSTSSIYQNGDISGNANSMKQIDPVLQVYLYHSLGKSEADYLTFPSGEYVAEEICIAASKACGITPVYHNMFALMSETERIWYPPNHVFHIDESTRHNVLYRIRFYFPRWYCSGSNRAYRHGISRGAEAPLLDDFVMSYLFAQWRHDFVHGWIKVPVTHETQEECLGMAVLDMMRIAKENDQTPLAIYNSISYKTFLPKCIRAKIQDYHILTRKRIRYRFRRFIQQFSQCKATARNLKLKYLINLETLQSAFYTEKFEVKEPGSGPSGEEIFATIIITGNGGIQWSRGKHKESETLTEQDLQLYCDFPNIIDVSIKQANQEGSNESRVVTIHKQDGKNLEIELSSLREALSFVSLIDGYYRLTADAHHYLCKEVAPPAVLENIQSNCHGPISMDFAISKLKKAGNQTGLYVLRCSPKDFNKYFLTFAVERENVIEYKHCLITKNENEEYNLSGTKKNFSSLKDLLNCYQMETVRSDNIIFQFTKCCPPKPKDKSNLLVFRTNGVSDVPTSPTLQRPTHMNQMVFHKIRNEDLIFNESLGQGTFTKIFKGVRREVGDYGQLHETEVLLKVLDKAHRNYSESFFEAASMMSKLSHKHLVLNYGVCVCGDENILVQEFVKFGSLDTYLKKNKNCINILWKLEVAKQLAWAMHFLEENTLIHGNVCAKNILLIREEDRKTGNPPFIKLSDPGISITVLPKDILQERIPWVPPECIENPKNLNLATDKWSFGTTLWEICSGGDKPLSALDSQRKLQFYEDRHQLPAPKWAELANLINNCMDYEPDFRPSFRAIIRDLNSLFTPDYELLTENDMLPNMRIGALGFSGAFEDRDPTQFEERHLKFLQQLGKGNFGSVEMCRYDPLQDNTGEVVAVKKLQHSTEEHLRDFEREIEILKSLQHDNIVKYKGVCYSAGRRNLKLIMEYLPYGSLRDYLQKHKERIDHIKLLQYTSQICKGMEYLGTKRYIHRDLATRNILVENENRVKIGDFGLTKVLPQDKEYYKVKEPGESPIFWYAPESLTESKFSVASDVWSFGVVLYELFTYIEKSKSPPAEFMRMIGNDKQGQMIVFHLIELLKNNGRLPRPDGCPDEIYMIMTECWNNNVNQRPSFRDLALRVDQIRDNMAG
Method: as §1

TYK2 = TYK2 (Homo sapiens, UniProt P29597); assay: as above; type: biochemical; parameters: purchased Reaction Biology (JAK1/2/3, TYK2); Luceome Biotechnologies KinaseSeeker (others); conditions: percent activity of kinase after exposure to IST5 1 µM
Sequence of TYK2 (P29597 whole entry): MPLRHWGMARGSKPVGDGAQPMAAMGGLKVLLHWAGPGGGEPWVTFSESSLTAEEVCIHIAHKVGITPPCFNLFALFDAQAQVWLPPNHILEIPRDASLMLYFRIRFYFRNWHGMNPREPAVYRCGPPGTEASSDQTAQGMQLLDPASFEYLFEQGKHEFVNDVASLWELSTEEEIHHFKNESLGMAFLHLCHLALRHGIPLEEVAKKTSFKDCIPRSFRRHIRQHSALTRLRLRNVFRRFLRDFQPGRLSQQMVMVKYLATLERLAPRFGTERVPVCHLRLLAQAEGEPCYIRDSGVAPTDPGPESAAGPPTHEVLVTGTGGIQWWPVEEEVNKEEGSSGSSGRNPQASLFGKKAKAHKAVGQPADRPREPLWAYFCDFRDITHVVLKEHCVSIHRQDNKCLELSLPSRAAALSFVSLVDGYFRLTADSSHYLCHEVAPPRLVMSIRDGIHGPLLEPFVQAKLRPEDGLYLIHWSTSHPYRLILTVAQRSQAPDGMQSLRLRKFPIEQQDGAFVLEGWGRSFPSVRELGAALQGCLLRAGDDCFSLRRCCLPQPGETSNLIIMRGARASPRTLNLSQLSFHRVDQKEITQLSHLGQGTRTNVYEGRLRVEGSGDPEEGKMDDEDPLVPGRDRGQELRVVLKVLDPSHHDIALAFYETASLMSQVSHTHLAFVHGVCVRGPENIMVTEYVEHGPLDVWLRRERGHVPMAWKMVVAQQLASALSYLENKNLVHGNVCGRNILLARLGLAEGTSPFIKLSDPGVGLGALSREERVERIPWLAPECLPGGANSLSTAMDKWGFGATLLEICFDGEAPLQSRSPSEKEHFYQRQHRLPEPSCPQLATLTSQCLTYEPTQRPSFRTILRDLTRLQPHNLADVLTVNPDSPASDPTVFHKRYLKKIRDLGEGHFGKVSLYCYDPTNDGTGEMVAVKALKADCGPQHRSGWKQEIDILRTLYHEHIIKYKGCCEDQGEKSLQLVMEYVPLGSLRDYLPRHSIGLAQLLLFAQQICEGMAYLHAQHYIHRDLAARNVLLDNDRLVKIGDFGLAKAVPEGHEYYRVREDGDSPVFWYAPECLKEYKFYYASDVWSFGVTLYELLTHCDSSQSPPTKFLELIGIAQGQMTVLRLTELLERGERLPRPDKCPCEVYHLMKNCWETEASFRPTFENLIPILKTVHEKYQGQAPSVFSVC
Method: as §1

JAK3 = molecular target: T1, JAK3 (Homo sapiens, UniProt P52333); assay: as above; type: biochemical; parameters: purchased Reaction Biology (JAK1/2/3, TYK2); Luceome Biotechnologies KinaseSeeker (others); conditions: percent activity of kinase after exposure to IST5 1 µM
T1 sequence (P52333 1-1124): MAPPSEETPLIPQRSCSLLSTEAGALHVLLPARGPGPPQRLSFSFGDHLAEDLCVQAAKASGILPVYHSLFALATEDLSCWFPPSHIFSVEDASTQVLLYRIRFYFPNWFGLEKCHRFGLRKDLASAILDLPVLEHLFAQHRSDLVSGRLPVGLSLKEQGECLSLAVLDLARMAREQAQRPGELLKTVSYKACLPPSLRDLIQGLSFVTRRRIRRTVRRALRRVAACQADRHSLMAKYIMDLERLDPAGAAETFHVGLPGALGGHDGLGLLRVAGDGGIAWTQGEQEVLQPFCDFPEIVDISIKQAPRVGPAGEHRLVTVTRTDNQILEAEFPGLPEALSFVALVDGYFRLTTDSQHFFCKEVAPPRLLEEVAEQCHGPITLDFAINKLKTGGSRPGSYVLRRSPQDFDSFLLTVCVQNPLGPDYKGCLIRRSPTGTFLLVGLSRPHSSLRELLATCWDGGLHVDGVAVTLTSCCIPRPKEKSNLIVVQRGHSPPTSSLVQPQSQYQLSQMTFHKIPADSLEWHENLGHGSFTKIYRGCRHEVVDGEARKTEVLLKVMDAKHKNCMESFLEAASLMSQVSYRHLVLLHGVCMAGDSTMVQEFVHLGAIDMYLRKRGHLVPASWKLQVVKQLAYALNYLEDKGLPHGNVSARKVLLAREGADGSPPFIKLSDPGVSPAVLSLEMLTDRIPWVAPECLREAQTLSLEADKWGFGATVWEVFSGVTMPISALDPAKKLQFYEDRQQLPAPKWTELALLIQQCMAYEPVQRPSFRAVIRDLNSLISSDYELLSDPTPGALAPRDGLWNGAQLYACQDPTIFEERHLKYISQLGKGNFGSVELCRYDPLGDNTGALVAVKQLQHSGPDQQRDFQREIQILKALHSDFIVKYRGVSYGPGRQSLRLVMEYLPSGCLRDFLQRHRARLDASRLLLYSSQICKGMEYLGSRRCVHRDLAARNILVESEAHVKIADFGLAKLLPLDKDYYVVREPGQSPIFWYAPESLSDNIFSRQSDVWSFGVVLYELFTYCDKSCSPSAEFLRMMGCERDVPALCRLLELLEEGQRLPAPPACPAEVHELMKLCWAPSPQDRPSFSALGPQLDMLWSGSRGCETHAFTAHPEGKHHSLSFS
Method: as §1

For `O=P(O)(O)OCC1OC(n2cnc3c(NCc4ccccc4)ncnc32)C(O)C1O` (centres unmarked) [IST5], the BW (athymic nude mice; single i.p. 10 mg/kg) was 22.8 ± 0.79 g, the ALT (athymic nude mice; single i.p. 10 mg/kg) was 62.1 ± 11.0 U/L and the AST (athymic nude mice; single i.p. 10 mg/kg) was 284 ± 78.7 U/L. For the same molecule, the Albumin (athymic nude mice; single i.p. 10 mg/kg) was 3.25 ± 0.01 g/dL, the Alk.Ptase (athymic nude mice; single i.p. 10 mg/kg) was 43.17 ± 3.5 U/L and the BUN (athymic nude mice; single i.p. 10 mg/kg) was 27.67 ± 1.4. The “Bile Acid” value (athymic nude mice; single i.p. 10 mg/kg) was 0.88 ± 0.40 µmol/dL, the Chol (athymic nude mice; single i.p. 10 mg/kg) was 67.80 ± 5.0 mg/dL and the Globulin (athymic nude mice; single i.p. 10 mg/kg) was 1.4 ± 0.01. It also gave a TBIL (athymic nude mice; single i.p. 10 mg/kg) of 0.51 ± 0.10 mg/dL, a BW (athymic nude mice; single i.p. 30 mg/kg) of 21.9 ± 089 g and an ALT (athymic nude mice; single i.p. 30 mg/kg) of 100 ± 23.9 U/L. The AST (athymic nude mice; single i.p. 30 mg/kg) was 488 ± 168 U/L, the Albumin (athymic nude mice; single i.p. 30 mg/kg) was 4.16 ± 0.59 g/dL and the Alk.Ptase (athymic nude mice; single i.p. 30 mg/kg) was 57.0 ± 6.82 U/L. The BUN (athymic nude mice; single i.p. 30 mg/kg) was 29.6 ± 1.79, the “Bile Acid” value (athymic nude mice; single i.p. 30 mg/kg) was 3.35 ± 2.87 µmol/dL and the Chol (athymic nude mice; single i.p. 30 mg/kg) was 182 ± 57.8 mg/dL. The Globulin (athymic nude mice; single i.p. 30 mg/kg) was 1.4 ± 0.08, the TBIL (athymic nude mice; single i.p. 30 mg/kg) was 1.16 ± 0.43 mg/dL and the BW (athymic nude mice; single i.p. 100 mg/kg) was 22.0 ± 0.97 g. The HCT (athymic nude mice; single i.p. 100 mg/kg) was 0.44 ± 0.01 L/L, the ALT (athymic nude mice; single i.p. 100 mg/kg) was 73.2 ± 15.4 U/L and the AST (athymic nude mice; single i.p. 100 mg/kg) was 377 ± 96.7 U/L. The Albumin (athymic nude mice; single i.p. 100 mg/kg) was 3.32 ± 0.15 g/dL, the Alk.Ptase (athymic nude mice; single i.p. 100 mg/kg) was 55.8 ± 5.42 U/L and the BUN (athymic nude mice; single i.p. 100 mg/kg) was 28.6 ± 1.14. For the same molecule, the “Bile Acid” value (athymic nude mice; single i.p. 100 mg/kg) was 2.52 ± 1.28 µmol/dL, the Chol (athymic nude mice; single i.p. 100 mg/kg) was 89.4 ± 5.91 mg/dL and the Globulin (athymic nude mice; single i.p. 100 mg/kg) was 1.28 ± 0.10. It also gave a TBIL (athymic nude mice; single i.p. 100 mg/kg) of 0.62 ± 0.09 mg/dL, an Activity (JAK1) of 96.2% and an Activity (JAK2) of 95.4%. The Activity (TYK2) was 100.0% and the Activity (JAK3) was 100.0%.

— paper PMC7724566, “Prospects for Clinical Development of Stat5 Inhibitor IST5-002: High Transcriptomic Specificity in Prostate Cancer and Low Toxicity In Vivo” (Cancers, 2020)
